{"source": "patent US7220420B2", "about": "“Hepatitis C virus-derived peptides capable of inducing cytotoxic T lymphocyte responses” (The Scripps Research Institute, priority 1994, dated 2007)", "key": {"[1]": {"tested_on": "peptide-pulsed HLA-A2 matched JY EBV-BCL cells"}, "[2]": {"tested_on": "peptide pulsed HLA-A2 matched JY EBV-BCL target cells", "type": "cell-based, human"}}, "note": "Read-outs that look alike come from different tables or passages of the source. No end group written: not given here.", "data": [{"molecule": "CC(C)C[C@H](NC(=O)[C@H](C)NC(=O)[C@H](CC(C)C)NC(=O)[C@@H](N)CC(C)C)C(=O)N[C@@H](CC(C)C)C(=O)N[C@@H](CO)C(=O)N[C@@H](CS)C(=O)N[C@@H](CC(C)C)C(=O)N[C@H](C(=O)N[C@H](C(=O)O)C(C)C)[C@@H](C)O", "note": "[SEQ ID NO:2]", "values": [{"measurement": "peptide specific cytotoxic activity %", "setting": "[1]; subject C-2, 2 weeks, E/T 80", "result": 29, "unit": "%"}, {"measurement": "peptide specific cytotoxic activity %", "setting": "[1]; subject C-2, 3 weeks, E/T 25", "result": 37, "unit": "%"}, {"measurement": "peptide specific cytotoxic activity %", "setting": "[1]; subject C-2, 4 weeks, E/T 7", "result": 33, "unit": "%"}, {"measurement": "peptide specific cytotoxic activity %", "setting": "[1]; subject C-2, 4 weeks, E/T 21", "result": 64, "unit": "%"}, {"measurement": "peptide specific cytotoxic activity %", "setting": "[1]; subject C-2, 4 weeks, E/T 64", "result": 81, "unit": "%"}, {"measurement": "peptide specific cytotoxic activity %", "setting": "[1]; subject C-2, 5 weeks, E/T 2", "result": 24, "unit": "%"}, {"measurement": "peptide specific cytotoxic activity %", "setting": "[1]; subject C-2, 5 weeks, E/T 6", "result": 57, "unit": "%"}, {"measurement": "peptide specific cytotoxic activity %", "setting": "[1]; subject C-2, 5 weeks, E/T 18", "result": 60, "unit": "%"}, {"measurement": "peptide specific cytotoxic activity %", "setting": "[1]; subject C-3, 2 weeks, E/T 80", "result": 19, "unit": "%"}, {"measurement": "peptide specific cytotoxic activity %", "setting": "[1]; subject C-3, 3 weeks, E/T 40", "result": 18, "unit": "%"}, {"measurement": "peptide specific cytotoxic activity %", "setting": "[1]; subject C-3, 4 weeks, E/T 4", "result": 20, "unit": "%"}, {"measurement": "peptide specific cytotoxic activity %", "setting": "[1]; subject C-3, 4 weeks, E/T 11", "result": 37, "unit": "%"}, {"measurement": "peptide specific cytotoxic activity %", "setting": "[1]; subject C-3, 4 weeks, E/T 33", "result": 60, "unit": "%"}, {"measurement": "peptide specific cytotoxic activity %", "setting": "[1]; subject C-3, 5 weeks, E/T 3", "result": 35, "unit": "%"}, {"measurement": "peptide specific cytotoxic activity %", "setting": "[1]; subject C-3, 5 weeks, E/T 10", "result": 52, "unit": "%"}, {"measurement": "peptide specific cytotoxic activity %", "setting": "[1]; subject C-3, 5 weeks, E/T 30", "result": 76, "unit": "%"}]}, {"molecule": "ILDSFDPLV [SEQ ID NO:42]", "values": [{"measurement": "peptide specific cytotoxic activity %", "setting": "[1]; subject C-2, Exp I, 2 weeks, E/T 40", "result": 29, "unit": "%"}, {"measurement": "peptide specific cytotoxic activity %", "setting": "[1]; subject C-2, Exp II (PBMC collected two months after Exp I), 2 weeks, E/T 40", "result": 2, "unit": "%"}, {"measurement": "peptide specific cytotoxic activity %", "setting": "[1]; subject C-2, Exp II, 3 weeks, E/T 25", "result": 3, "unit": "%"}, {"measurement": "peptide specific cytotoxic activity %", "setting": "[1]; subject C-2, Exp II, 4 weeks, E/T 10", "result": 10, "unit": "%"}, {"measurement": "peptide specific cytotoxic activity %", "setting": "[1]; subject C-2, Exp II, 4 weeks, E/T 29", "result": 29, "unit": "%"}, {"measurement": "peptide specific cytotoxic activity %", "setting": "[1]; subject C-2, Exp II, 4 weeks, E/T 88", "result": 59, "unit": "%"}, {"measurement": "peptide specific cytotoxic activity %", "setting": "[1]; subject C-2, Exp II, 5 weeks, E/T 6", "result": 20, "unit": "%"}, {"measurement": "peptide specific cytotoxic activity %", "setting": "[1]; subject C-2, Exp II, 5 weeks, E/T 19", "result": 52, "unit": "%"}, {"measurement": "peptide specific cytotoxic activity %", "setting": "[1]; subject C-2, Exp II, 5 weeks, E/T 56", "result": 83, "unit": "%"}]}, {"molecule": "LLCPAGHAV [SEQ ID NO:26]", "values": [{"measurement": "represents a CTL epitope (dagger mark)", "setting": "[2]; panel of 53 peptides, assay of Example 2", "result": "LLCPAGHAV^†"}, {"measurement": "lysis of target cells by peptide specific CTL lines (FIG. 2)", "setting": "[1]; subject C-3, lines four weeks in culture, varying effector/target cell ratio", "result": "recognize and lyse HLA A2-matched EBV-BCL in a dose dependent fashion"}]}, {"molecule": "LLFNILGGWV [SEQ ID NO:35]", "values": [{"measurement": "represents a CTL epitope (dagger mark)", "setting": "[2]", "result": "LLFNILGGWV^†"}]}]}
